{
  "source": "patent US20230203506A1",
  "about": "“LACTIC ACID OPTICAL PROBE, PREPARATION METHOD THEREFOR AND APPLICATION THEREOF” (East China University of Science and Technology, priority 2019, published 2023)",
  "data": [
    {"test": "Lactate concentration-gradient titration of purified probe (ratio of 420 nm to 485 nm excitation, 528 nm emission)", "type": "binding", "conditions": "ratio 420 nm/485 nm excitation", "description": "(§1) 6. […] The fluorescence excitation and emission determination of the samples were done using a multifunctional fluorescence microplate reader.", "units": {"magnitude of change": "fold"}, "values": [
      {"substance": "P189C/P190Y: LldR(80-258)-185/189-cpYFP mutant", "magnitude of change": 4.3}
    ]},
    {"test": "Lactate concentration-gradient titration of purified probe (ratio of 420 nm to 485 nm excitation, 528 nm emission)", "type": "binding", "conditions": "ratio 420 nm/485 nm excitation, read-out: Kd (binding constant)", "description": "as §1", "units": {"Kd": "µM"}, "values": [
      {"substance": "P189C/P190Y: LldR(80-258)-185/189-cpYFP mutant", "Kd": 41}
    ]},
    {"test": "Lactate response detection of purified probe (signal with 10 mM lactate divided by signal without lactate)", "type": "biochemical", "conditions": "M185 saturation mutants of two-site mutants of LldR(80-258)-185/189-cpYFP", "values": [
      {"substance": "M185F/P189H/P190D: three-site mutant of LldR(80-258)-185/189-cpYFP", "Response of the three-site mutants to lactate": 8.0},
      {"substance": "M185S/P189H/P190D: three-site mutant of LldR(80-258)-185/189-cpYFP", "Response of the three-site mutants to lactate": 7.0},
      {"substance": "M185A/P189M/P190D: three-site mutant of LldR(80-258)-185/189-cpYFP; Table 4 row printed WD", "Response of the three-site mutants to lactate": 8.4},
      {"substance": "M185V/P189H/P190D: three-site mutant of LldR(80-258)-185/189-cpYFP", "Response of the three-site mutants to lactate": 6.2},
      {"substance": "M185L/P189M/P190D: three-site mutant of LldR(80-258)-185/189-cpYFP; Table 4 row printed WD", "Response of the three-site mutants to lactate": 5.6},
      {"substance": "M185L/P189H/P190D: three-site mutant of LldR(80-258)-185/189-cpYFP", "Response of the three-site mutants to lactate": 15.3}
    ]},
    {"test": "Lactate response detection of purified probe (signal with 10 mM lactate divided by signal without lactate)", "type": "biochemical", "conditions": "detection signal with 10 mM lactate divided by signal without lactate; mutants of LldR(80-258)-185/189-cpYFP", "experimental": "4. After purified proteins were subjected to SDS-PAGE, probes were diluted to a protein solution having a final concentration of 5-10 μM using assay buffer (100 mm HEPES, 100 mM NaCl, pH 7.3) or phosphate buffer PBS.\nas §1\nMutants of the two sites, 189 and 190, were constructed on the basis of LldR(80-258)-185/189-cpYFP. Plasmid pCDFDuet-LldR(80-258)-185/189-cpYFP was linearized by reverse PCR, mutations were introduced at mutation sites by primers, and the obtained PCR products was ligated by adding phosphorus with PNK, T4 DNA ligase, and PEG4000, transformed into BL21 (DE3), and then screened. […] Exemplary nucleic acid sequences were shown in SEQ ID No: 31 (LldR(80-258)-185/189-P189F/P190D-cpYFP).", "values": [
      {"substance": "P189F/P190H: LldR(80-258)-185/189-cpYFP mutant", "Responses to lactate for 189 mutant versus 190 mutant": 3.7},
      {"substance": "P189S: LldR(80-258)-185/189-cpYFP mutant", "Responses to lactate for 189 mutant versus 190 mutant": 3.3},
      {"substance": "P189F/P190D: LldR(80-258)-185/189-cpYFP mutant", "Responses to lactate for 189 mutant versus 190 mutant": 13.4},
      {"substance": "P189C/P190F: LldR(80-258)-185/189-cpYFP mutant", "Responses to lactate for 189 mutant versus 190 mutant": 2.3},
      {"substance": "P189/P190(WT): lactate optical probe, cpYFP inserted at 185/189 of LldR(80-258), unmutated", "Responses to lactate for 189 mutant versus 190 mutant": 0.2},
      {"substance": "P189R/P190I: LldR(80-258)-185/189-cpYFP mutant", "Responses to lactate for 189 mutant versus 190 mutant": 3.5},
      {"substance": "P189C/P190Y: LldR(80-258)-185/189-cpYFP mutant", "Responses to lactate for 189 mutant versus 190 mutant": 4.0},
      {"substance": "P189H/P190R: LldR(80-258)-185/189-cpYFP mutant", "Responses to lactate for 189 mutant versus 190 mutant": 3.2},
      {"substance": "P189H/P190D: LldR(80-258)-185/189-cpYFP mutant", "Responses to lactate for 189 mutant versus 190 mutant": 8.9},
      {"substance": "P189N/P190Y: LldR(80-258)-185/189-cpYFP mutant", "Responses to lactate for 189 mutant versus 190 mutant": 3.1},
      {"substance": "P189N: LldR(80-258)-185/189-cpYFP mutant", "Responses to lactate for 189 mutant versus 190 mutant": 2.1},
      {"substance": "P189M/P190D: LldR(80-258)-185/189-cpYFP mutant", "Responses to lactate for 189 mutant versus 190 mutant": 7.0},
      {"substance": "P189N/P190F: LldR(80-258)-185/189-cpYFP mutant", "Responses to lactate for 189 mutant versus 190 mutant": 2.3}
    ]}
  ]
}
